According to US20230218566A1, “Composition and Method for Treating Chronic Pain” (Zelira Therapeutics Operations Pty Ltd, priority 2020, published 2023):

Experiment: Pharmacokinetics of THC and CBD after oral MC formulation (Example 3)
Conditions: for Tmax / AUC(0-t) / Cmax / half-life: human, plasma; for dose response of Cmax and AUC0-8 with increasing doses: oral doses 2.5 to 12.5 mg
[1] = high fat meal 30 minutes before 2.5 mg dose versus fasted
[2] = oral, delay of Tmax by high fat meal, high fat meal 30 minutes before 2.5 mg dose versus fasted
[3] = po, AUC0-8, 2.5 mg: single oral dose 2.5 mg THC/2.5 mg CBD after 12 hour fast (day 1)
[4] = po, AUC0-8, 5 mg: single oral dose 5 mg THC/5 mg CBD
[5] = po, AUC0-8, 7.5 mg: single oral dose 7.5 mg THC/7.5 mg CBD
[6] = po, 2.5 mg fed: single oral dose 2.5 mg THC/2.5 mg CBD 30 minutes after high fat meal (day 8)
[7] = po, 2.5 mg: single oral dose 2.5 mg THC/2.5 mg CBD after 12 hour fast (day 1)
[8] = po, 5 mg: single oral dose 5 mg THC/5 mg CBD
[9] = po, 7.5 mg: single oral dose 7.5 mg THC/7.5 mg CBD
[10] = po, Tmax, 2.5 mg fed: single oral dose 2.5 mg THC/2.5 mg CBD 30 minutes after high fat meal (day 8)
[11] = po, Tmax, 2.5 mg: single oral dose 2.5 mg THC/2.5 mg CBD after 12 hour fast (day 1)
[12] = po, Tmax, 5 mg: single oral dose 5 mg THC/5 mg CBD
[13] = po, Tmax, 7.5 mg: single oral dose 7.5 mg THC/7.5 mg CBD
[14] = po, t½ (did not change with increasing dose), across doses 2.5 to 12.5 mg
[15] = po, t½, 2.5 mg fed: single oral dose 2.5 mg THC/2.5 mg CBD 30 minutes after high fat meal (day 8)
[16] = po, t½, 2.5 mg: single oral dose 2.5 mg THC/2.5 mg CBD after 12 hour fast (day 1)
[17] = po, t½, 5 mg: single oral dose 5 mg THC/5 mg CBD
[18] = po, t½, 7.5 mg: single oral dose 7.5 mg THC/7.5 mg CBD

C=C(C)[C@@H]1CCC(C)=C[C@H]1c1c(O)cc(CCCCC)cc1O [CBD, cannabidiol]
effect of high fat meal on Cmax and AUC0-8 [1]: significantly increased | Tmax [2]: ≥ 1 h | AUC(0-t) (po, AUC0-8, 2.5 mg fed: single oral dose 2.5 mg THC/2.5 mg CBD 30 minutes after high fat meal (day 8)): 3.67 ng·h/mL | AUC(0-t) [3]: 1.76 ± 0.84 ng·h/mL | AUC(0-t) [4]: 5.09 ± 1.8 ng·h/mL | AUC(0-t) [5]: 7.47 ± 2.95 ng·h/mL | Cmax [6]: 0.99 ± 0.45 ng/mL | Cmax [7]: 0.62 ± 0.19 ng/mL | Cmax [8]: 1.51 ± 0.55 ng/mL | Cmax [9]: 2.26 ± 0.95 ng/mL | Tmax [10]: 2.78 h | Tmax [11]: 1.83 ± 1 h | Tmax [12]: 1.75 ± 1.04 h | Tmax [13]: 1.64 ± 1.18 h | half-life [14]: 3.6 h | half-life [15]: 2.95 ± 0.66 h | half-life [16]: 4.25 ± 0.54 h | half-life [17]: 4.54 ± 2.41 h | half-life [18]: 3.47 ± 0.86 h | dose response of Cmax and AUC0-8 with increasing doses: linear dose response relationship

CCCCCc1cc(O)c2c(c1)OC(C)(C)[C@@H]1CCC(C)=C[C@@H]21 [THC, Δ^9-tetrahydrocannabinol]
AUC0-8 (2.5 mg fed: single oral dose 2.5 mg THC/2.5 mg CBD 30 minutes after high fat meal (day 8)): 5.86 ± 2.07 (9) ng/mL*h | effect of high fat meal on Cmax and AUC0-8 [1]: significantly increased | Tmax [2]: ≥ 1 h | AUC(0-t) [3]: 2 ± 1.38 ng·h/mL | AUC(0-t) [4]: 6.04 ± 2.07 ng·h/mL | AUC(0-t) [5]: 10.6 ± 3.84 ng·h/mL | Cmax [6]: 1.52 ± 0.55 ng/mL | Cmax [7]: 0.83 ± 0.29 ng/mL | Cmax [8]: 2.56 ± 1.7 ng/mL | Cmax [9]: 3.84 ± 1.62 ng/mL | Tmax [10]: 2.78 ± 1.2 h | Tmax [11]: 1.67 ± 1.09 h | Tmax [12]: 2.06 ± 1.32 h | Tmax [13]: 1.36 ± 0.63 h | half-life [14]: 2.5 h | half-life [15]: 2.63 ± 0.43 h | half-life [16]: 2.6 ± 0.53 h | half-life [17]: 2.47 ± 0.88 h | half-life [18]: 2.41 ± 0.62 h | dose response of Cmax and AUC0-8 with increasing doses: linear dose response relationship
